From patent publication US7875602B2 (priority 2005, dated 2011)
Counter-ions that a name gives are not always drawn.

Key:
[1] = system: DMS-14 small lung cancer cells; experiment: In vitro chemoradiosensitization, cell colony count; assay type: cell-based, human; conditions: for Survival (%): Radiation + compound at 5 nM, 2 h drug exposure
Protocol: (§1) Chemoradiosensitizing effects of compound 13 on human cancer cells were evaluated at a dose of 5 nM. DMS-14 small lung cancer cells were plated on petri dishes in triplicates were allowed to attach. After irradiation, cells were rinsed with HBSS (Hank's balanced salt solution), and covered with fresh media. Cells were cultured for 8-9 days in a 37° C. incubator. The resulting cell colonies were stained and counted. […] Other compounds of this invention can similarly be evaluated in accordance with this method.

[2] = Acute toxicity, MTD40 (maximum tolerated dose at day 40); assay type: in vivo, C3H/HeN mice; conditions: i.p. injection, mice checked daily for 45 days; values only in FIG. 3
Protocol: Drugs were dissolved in cremophor:alcohol (1:1) and diluted in saline to a 5% cremophor, 5% alcohol, 90% saline for i.p. injection.
Acute toxicities of a compound of this invention, compound 13, topotecan, CPT and cisplatin were evaluated on C3H/HeN mice (female, 6-8 week old, body weight 18-20 g). The MTD40 (maximum tolerated dose at day 40) values were determined. In the consecutive type studies, 6 mice were dosed at moderate doses of 10, 70, or 106.98, or 141.47, or 187.1 mg/kg. If no severe and irreversible toxicity (euthanasia is required) occurred at these doses, additional 6 animals were initiated at a dose which is 1.3225-1.5283 times higher than the previous non-toxic doses. Sequential dosages (261.94, or 366.72, or 500 mg/kg) were increased until severe and irreversible toxicity (whereby euthanasia is required) occurs. […] The result of this exercise was two dosages, one apparently nonlethal and the other lethal if severe and irreversible toxicity occurred and euthanasia was required. Six mice were dosed at each dosage. If no severe and irreversible toxicity occurred at the lower dosage and at least one with severe and irreversible toxicity at the higher dose, then the lower dose was considered to the MTD. […] Drug toxicity was evaluated on mice, checked daily for 45 days. […] Other compounds of this invention can similarly be evaluated in accordance with this method.

[3] = system: PC-3 human prostate cancer cells; experiment: In vitro chemoradiosensitization, cell colony count; assay type: cell-based; conditions: for radiosensitivity of the cancer cell after prior exposure: 5 nM, 2 h exposure before X-rays; for Survival (%): Radiation + compound at 5 nM, 2 h drug exposure
Protocol: as §1, with “13, compound 10, and compound 20” for “13”, “PC-3 human prostate” for “DMS-14 small lung”

[4] = system: MTG-B mouse mammary adenocarcinoma tumors; experiment: In vivo chemoradiosensitization in tumor-bearing mice; design: species or system C3H/HeN mice; conditions: single i.p. injection at MTD
Protocol: To determine whether the pronounced effects of compound 13 in tissue culture could be duplicated in solid tumors, in vivo chemoradiosensitization studies were performed on C3H/HeN mice bearing MTG-B mouse mammary adenocarcinoma tumors. Prior to treatment, the tumor grew exponentially following implantation into the flanks of the mice and reached a diameter of 8 mm (268.08 cu. mm) by day 7 to 10. The mice were injected i.p. with compound 13 at MTD using a single injection and then irradiated with a radiation dose of 22 Gy 24 h after the injection. Control groups of mice bearing 8 mm diameter tumors were treated with vehicle alone, or radiation alone, or drug alone. After treatment, tumor sizes were measured by caliper every day. Daily measurement of the tumor diameters (d1, d2) in two orthogonal directions were used to calculate the tumor volume (tumor volume=π/6{(d1+d2)/2}^3) using the approximation that the tumors were spherical (results shown in FIG. 1). The values of time (days) required to grow the tumor to twice their initial size after various treatments were calculated as tumor doubling time (TDT) (±SE) for evaluating the treatment effects. Survival times and curative effects after treatment were also be observed and recorded. Other compounds of this invention can similarly be evaluated in accordance with this method.

[5] = system: PC-3 human prostate cancer cells; experiment: Chemotherapeutic activity, cell colony count after 24 hr drug exposure; assay type: cell-based; conditions: 24 hr exposure
Protocol: (§2) Chemotherapeutic effects of compound 13 on human prostate cancer cells (PC-3 and DU-145) were evaluated at dose concentrations between 0 and 10 nM. Cells plated on Petri dishes in triplicates were allowed to attach, then cells were subjected to 24 hr drug exposure at 37° C. The cells were then rinsed with HBSS ((Hank's balanced salt solution) and covered with fresh media. Cells were cultured for 8-9 days in a 37° C. incubator. The resulting cell colonies were stained and counted. Results are presented in Table 4.

[6] = system: DU-145 human prostate cancer cells; experiment: as above; assay type: cell-based; conditions: 24 hr exposure
Protocol: as §2

[7] = system: PC-3: human prostate cancer cell line; assay type: cell-based; conditions: for IC50: Homo sapiens, 72 h, read-out: IC50 (nM) PC-3
[8] = compound plus radiation, 22 Gy 24 h after the injection

Structure (SMILES)	melting point	radiosensitivity of the cancer cell after prior exposure [3]	Survival (%) ([3]; X-rays 0 Gy)	Survival (%) ([3]; X-rays 1 Gy)	Survival (%) ([3]; X-rays 2 Gy)	Survival (%) ([3]; X-rays 4 Gy)	IC50 [7] [nM]	further results
CC[C@@]1(OC(=O)CON=C2c3cc([N+](=O)[O-])cc([N+](=O)[O-])c3-c3c2cc([N+](=O)[O-])cc3[N+](=O)[O-])C(=O)OCc2c1cc1n(c2=O)Cc2cc3c(CN(C)C)c(O)ccc3nc2-1 (as salt: hydrochloride) [Compound 16]	210 to 215 °C (dec.)	–	–	–	–	–	–	–
CC[C@@]1(OC(=O)[C@@H](C)ON=C2c3cc([N+](=O)[O-])cc([N+](=O)[O-])c3-c3c2cc([N+](=O)[O-])cc3[N+](=O)[O-])C(=O)OCc2c1cc1n(c2=O)Cc2cc3ccccc3nc2-1 [Compound 13]	–	significantly increased the radiosensitivity	100	83	60	22	5	radiosensitivity of the cancer cell after prior exposure ([1]; 5 nM, 2 h exposure before X-rays): significantly increased the radiosensitivity; Survival (%) ([1]; X-rays 0 Gy): 100%; Survival (%) ([1]; X-rays 2 Gy): 44%; Survival (%) ([1]; X-rays 4 Gy): 23%; Survival (%) ([1]; X-rays 8 Gy): 3%; toxicity compared with camptothecin and topotecan [2]: Decreased Toxicity; Survival ([4]; compound alone): 24 days; TDT (days), tumor doubling time ([4]; compound alone): 12 days; Survival [4, 8]: 90 days; TDT (days), tumor doubling time [4, 8]: 33 days; PC-3 Cells % Survival ([5]; drug conc. 1 nM): 98%; PC-3 Cells % Survival ([5]; drug conc. 5 nM): 52%; PC-3 Cells % Survival ([5]; drug conc. 10 nM): 10%; DU-145 Cells % Survival ([6]; drug conc. 1 nM): 82%; DU-145 Cells % Survival ([6]; drug conc. 5 nM): 43%; DU-145 Cells % Survival ([6]; drug conc. 10 nM): 5%
CC[C@@]1(OC(=O)[C@@H](C)ON=C2c3cc([N+](=O)[O-])cc([N+](=O)[O-])c3-c3c2cc([N+](=O)[O-])cc3[N+](=O)[O-])C(=O)OCc2c1cc1n(c2=O)Cc2cc3c(CN(C)C)c(O)ccc3nc2-1 (as salt: hydrochloride) [Compound 10]	210 to 213 °C (dec.)	–	–	–	–	–	–	–
CC[C@@]1(OC(=O)[C@H](C)ON=C2c3cc([N+](=O)[O-])cc([N+](=O)[O-])c3-c3c2cc([N+](=O)[O-])cc3[N+](=O)[O-])C(=O)OCc2c1cc1n(c2=O)Cc2cc3ccccc3nc2-1 [Compound 17]	–	–	–	–	–	–	6	–
CC[C@@]1(OC(=O)[C@@H](C)ON=C2c3cc([N+](=O)[O-])cc([N+](=O)[O-])c3-c3c2cc([N+](=O)[O-])cc3[N+](=O)[O-])C(=O)OCc2c1cc1n(c2=O)Cc2cc3cc(O)ccc3nc2-1 [Compound 20]	210 to 215 °C (dec.)	significantly increased the radiosensitivity	100	82	65	22	6	–
CC[C@@]1(OC(=O)[C@@H](C)ON=C2c3cc([N+](=O)[O-])cc([N+](=O)[O-])c3-c3c2cc([N+](=O)[O-])cc3[N+](=O)[O-])C(=O)OCc2c1cc1n(c2=O)Cc2cc3c(CN(C)C)c(O)ccc3nc2-1 [Compound 10]	–	significantly increased the radiosensitivity	100	90	66	21	–	–
CC[C@@]1(O)C(=O)OCc2c1cc1n(c2=O)Cc2cc3c(CN(C)C)c(O)ccc3nc2-1 [Topotecan, (20S)-9-dimethylaminomethyl-10-hydroxy CPT, reference compound]	–	–	–	–	–	–	–	IC50 (nM) PC-3 ([7]; 72 hours drug incubation, 50% inhibition of colony formation): no effect
